This note sets out measurements from patent publication US5158958A, “Imidazo[4,5-b]quinolinyl oxy alkyl sulfonyl piperidine derivatives” (Bristol-Myers Squibb Company, priority 1992, dated 1992).

Counter-ions that a name gives are not always drawn.

The nature of the data set: Aqueous solubility. The data set is classed as physicochemical. The following applies: water, compounds prepared as dihydrochloride salts.

On to `O=S(=O)(CCCOc1ccc2[nH]c3nc(O)nc-3cc2c1)C1CCNCC1` [Cmpd 17a, 4-[[3-[[(2-,3-Dihydro-2-oxo-1H-imidazo[4,5-b]guinolin7-yl)oxy]propylsulfonyl]piperidinedihydrochloride], for which the solubility is more than 10000 µg/mL.
The figure for `O=S(=O)(CCCOc1ccc2[nH]c3nc(O)nc-3cc2c1)C1CCN(Cc2ccccc2)CC1` [Cmpd 17b, 4-[[3-[2,3-Dihydro-2-oxy-1H-imidazo[4,5-b]quinolin-7-yloxy]propyl]sulfonyl]-1-(phenylmethyl)piperidine dihydrochloride] is more than 10000 µg/mL; for `O=S(=O)(CCCOc1ccc2[nH]c3nc(O)nc-3cc2c1)C1CCN(Cc2ccc(F)cc2)CC1` [Cmpd 17c, 4-[[3-[2,3-Dihydro-2-oxo1H-imidazo[4,5-b]quinolin-7piperidinedihydrochloride] it is more than 10000 µg/mL.
The figure for `O=S(=O)(CCCOc1ccc2[nH]c3nc(O)nc-3cc2c1)C1CCN(CC2CCCCC2)CC1` [Cmpd 17d, 4-[[3-[2,3-Dihydro-2-oxo-1H-imidazo[4,5-b]quinolin-7-yl-oxy]propyl]sulfonyl]-(cyclohexylmethyl)piperidine dihydrochloride] is less than 10000 µg/mL; for `CCC(CC)CN1CCC(S(=O)(=O)CCCOc2ccc3nc4[nH]c(=O)[nH]c4cc3c2)CC1.Cl.Cl` [Cmpd 17e, 4-[[3-[2,3-Dihydro-2-oxo-1H-imidazo[4,5-b]quinolin-7yl-oxy]propyl]sulfonyl]1-(2-ethylbut-1yl)piperidine dihydrochloride] it is less than 10000 µg/mL; for `CC(C)CN1CCC(S(=O)(=O)CCCOc2ccc3[nH]c4nc(O)nc-4cc3c2)CC1` [Cmpd 17f, 4[[3-[2,3-Dihydro-2-oxo-1H-imidazo[4.5-b]quinolin-7yloxy]propyl]sulfonyll-1-(2-methylpropyl)piperidinedihydrochloride] it is more than 10000 µg/mL.
The figure for `O=S(=O)(CCCOc1ccc2[nH]c3nc(O)nc-3cc2c1)C1CCN(CCC2CCCCC2)CC1` [Cmpd 17g, 1-(2-Cyclohexylethyl)-4-[[(3-[(2,3-dihydro-2-oxo-1H-imidazo[4,5-b]quinolin-7-yloxy]propyl]sulfonyl]piperidinedihydrochloride] is less than 5000 µg/mL; for `O=S(=O)(CCCOc1ccc2[nH]c3nc(O)nc-3cc2c1)C1CCN(CCc2ccccc2)CC1` [Cmpd 17h, 4-[[3-[2,3-Dihydro-2-oxo-1H-imidazo[4,5-b]quinolin-7-yl-oxy]propyl]sulfonyl]-b 1-(2-phenylethyl)piperidine dihydrochloride] it is less than 5000 µg/mL.
For the molecule `O=S(=O)(CCCOc1ccc2[nH]c3nc(O)nc-3cc2c1)C1CCN(Cc2cccc(C(F)(F)F)c2)CC1` [Cmpd 17i, 4-[3-[2,3-Dihydro-2-oxo1H-imidazo[4,5-b]quinolin-7-yl-oxy]propyl]sulfony]1-[(3-trifluoromethylhenvlmethyphenylmethyl]piperidine dihydrochloride], the solubility was less than 5000 µg/mL.
In the case of `O=S(=O)(CCCOc1ccc2[nH]c3nc(O)nc-3cc2c1)C1CCN(CC2CCCCO2)CC1` (stereo not drawn) [Cmpd 17k, 4[[2,3-Dihydro-2-oxo-1H-imidazo[4,5-b]quinolin-7-yl-pxy]propyl]sulfonyl]-1-[(tetrahydro-2H-pyran-2-yl)piperidine dihydrochloride], the solubility was more than 10000 µg/mL.
With `O=S(=O)(CCCCOc1ccc2[nH]c3nc(O)nc-3cc2c1)C1CCNCC1` [Cmpd 18a, 4-[[2,3-Dihydro-2-oxo-1H-imidazo[4,5-b]quinolin-7-yloxy]butyl]sulfonyl]piperidine dihydrochloride], the solubility was more than 10000 µg/mL.
The figure for `O=S(=O)(CCCCOc1ccc2[nH]c3nc(O)nc-3cc2c1)C1CCN(Cc2ccccc2)CC1` [Cmpd 18b, 4[[3-[2,3-Dihydro-2-oxo-1H-imidazo[4,5-b]quinolin-7-yloxyl]butylsulfonyl]-1-(phenylmethyl)piperidinedihydrochloride] is approximately 5000 µg/mL.
The figure for `O=S(=O)(CCCCOc1ccc2[nH]c3nc(O)nc-3cc2c1)C1CCN(CC2CCCCC2)CC1` [Cmpd 18d, 1-(Cyclohexylmethyl)-4-[[3-[2,3-Dihydro-2-oxo-1H-imidaxo [4,5-b]quinolin-7-yloxy]butylsulfonylpiperidinedihydrochloride] is approximately 2000 µg/mL.
As for `O=S(=O)(CCCCOc1ccc2[nH]c3nc(O)nc-3cc2c1)C1CCN(Cc2ccc(F)cc2)CC1` [l8c, dihydrochloride], the solubility is approximately 2000 µg/mL.
For `CCC(CC)CN1CCC(S(=O)(=O)CCCCOc2ccc3[nH]c4nc(O)nc-4cc3c2)CC1` [l8e, 4[[3-[2,3-Dihydro-2-oxo-1H-imidazo[4.5-b]qouinolin-7-yloxy]butylsulfonyl]-1-(2-ethylbut-1-yl)piperidinedihydrochloride] the value was approximately 5000 µg/mL.

Usually solubility stands for the dissolved amount per volume that the medium holds.
